# Measured values as given in patent US20230286973A1, “PROTEIN SECRETION INHIBITORS” (KEZAR LIFE SCIENCES, priority 2020, published 2023).
# Like-named read-outs stand apart in the source and are kept apart here.
# How the values were obtained:
# [1] = system: multiple myeloma cell line U266B1; assay: U266 Cell Viability Assay; assay type: cell-based, human; conditions: Homo sapiens, U-266, 48 h, U266B1 cells, Celltiter-Glo
# Procedure: (§1) The human multiple myeloma cell line U266B1 was cultured in RPMI 1640 media supplemented with 10% fetal bovine serum, 2 mM Glutamine, and 1× Penicillin/Streptomycin. Cells were plated in 384-well tissue culture plates and treated with compound dilutions in DMSO/media. Plates were incubated at 37° C., 5% CO2 for 48 hours. After 48 hours, Celltiter-Glo® (Promega) was added to each well and luciferase signal was quantified using Tecan Infinite M1000 Pro for cell viability determination.
# (§2) For chemical structures that include one or more stereoisomers, but are illustrated without indicating stereochemistry, the assay data refers to a mixture of stereoisomers.
# [2] = system: multiple myeloma cell line NCI-H929; assay: H929 Cell Viability Assay; assay type: cell-based, human; conditions: Homo sapiens, NCI-H929, 48 h, NCI-H929 cells, Celltiter-Glo
# Procedure: as §1, with “NCI-H929” for “U266B1”, “cultured in Advanced RPMI 1640 media (Gibco®) supplemented with 6% fetal bovine serum, 2 mM Glutamine, and 1× Penicillin/Streptomycin. On the day of assay, cells were resuspended” for “cultured”, “Penicillin/Streptomycin and” for “Penicillin/Streptomycin. Cells were”
# as §2
# [3] = Liver Microsome Stability Assay (monkey); conditions: monkey liver microsomes, with NADPH, 1.0 uM compound
# Procedure: (§3) Stability of a compound was assessed in the presence of liver microsomes from various sources—mouse, rat, monkey and human liver microsomes. 1.0 uM compound, 0.4% DMSO in 0.1 M Potassium Phosphate with 1.0 mg/mL liver microsomes, were incubated at 37° C. with or without 1 mM NADPH. The samples were quenched at 0, and 30 minutes.
# [4] = Liver Microsome Stability Assay (human); conditions: human liver microsomes, with NADPH, 1.0 uM compound
# Procedure: as §3
# [5] = Liver Microsome Stability Assay (mouse); conditions: mouse liver microsomes, with NADPH, 1.0 uM compound
# Procedure: as §3
# [6] = system: PD1-ss+10aa/Gaussia Luciferase; assay: Dox-Induced PD1-ss-Gluc Assay; assay type: cell-based; conditions: 24 hr Dox induction, 293FRT/TO cells, read-out: 24 hr Dox Inducible PD1ssGluc 293FRT/TO: Mean IC50
# Description: Flp-In 293 T-REx™ cells were transfected with pcDNA™5/FRT/TO plasmid inserted with cDNA encoding Gaussia Luciferase fused to the 3′ end of cDNA encoding PD1 signal sequence plus 10 amino acids (N-[…]-C) (SEQ ID NO: 1). Transfected cells were selected for resistance to the selectable markers Hygromycin and Blasticidin to create a stable cell line that contained the PD1-ss+10aa/Gaussia Luciferase cDNA insert whose expression was regulated under the T-REx™ system. The day before assay, cells were trypsinized and plated in 384-well tissue culture plates. The next day, compound dilutions in DMSO/media containing doxycycline were added to the wells and incubated at 37° C., 5% CO2.
# as §2
# [7] = system: IL-2-FL/Gaussia Luciferase; assay: Dox Induced IL2-FL-Gluc Assay; assay type: cell-based; conditions: for IC50: 24 hr Dox induction, 293FRT/TO cells, read-out: 24 hr Dox Inducible IL2FLGluc 293FRT/TO: Mean IC50; for 24 hr Dox Inducible IL2FLGluc 293FRT/TO: IL2/PD1: ratio of IL2FLGluc IC50 to PD1ssGluc IC50
# Description: Flp-In 293 T-REx™ cells were transfected with pcDNA™5/FRT/TO plasmid inserted with cDNA encoding Gaussia Luciferase fused to the 3′ end of cDNA encoding full length IL-2 (amino acids 1-153). Transfected cells were selected for resistance to the selectable markers Hygromycin and Blasticidin to create a stable cell line that contained the IL-2-FL/Gaussia Luciferase cDNA insert whose expression was regulated under the T-REx™ system. The day before assay, cells were trypsinized and plated in 384-well tissue culture plates. The next day, compound dilutions in DMSO/media containing doxycycline were added to the wells and incubated at 37° C., 5% CO2.
# as §2
# [8] = Liver Microsome Stability Assay (rat); conditions: rat liver microsomes, with NADPH, 1.0 uM compound
# Procedure: as §3
# [9] = '<=>' given where both are I.A.
EC50 [1] [µM],EC50 [2] [µM],Liver Microsome Stability (Multiple Species): Monkey - % Remaining after 30 min w/NADPH [3] [%],Liver Microsome Stability (Multiple Species): Human - % Remaining after 30 min w/NADPH [4] [%],Liver Microsome Stability (Multiple Species): Mouse - % Remaining after 30 min w/NADPH [5] [%],IC50 ([6]; mean) [µM],IC50 ([7]; mean) [µM],Liver Microsome Stability (Multiple Species): Rat - % Remaining after 30 min w/NADPH [8] [%],IC50 [6] [µM],IC50 [7] [µM],SMILES,"24 hr Dox Inducible IL2FLGluc 293FRT/TO: IL2/PD1 [7, 9]",24 hr Dox Inducible IL2FLGluc 293FRT/TO: IL2/PD1 [7]
23.3,24.6,0.62,0.96,0.82,2.52,5,0.14,,,"O=C(Nc1nc([C@H]2CCCN2c2ccccc2)cs1)c1cccn1Cc1cccnc1 [Compound E20, (R)-N-(4-(1-phenylpyrrolidin-2-yl)thiazol-2-yl)-1-(pyridin-3-ylmethyl)-1H-pyrrole-2-carboxamide]",2,
> 25,23.8,65,54.7,41.1,9.67,6.05,20.3,,,"C#CCn1cccc1C(=O)Nc1nc([C@H]2CCCN2c2ccccc2)cs1 [Compound C33, (R)-N-(4-(1-phenylpyrrolidin-2-yl)thiazol-2-yl)-1-(prop-2-yn-1-yl)-1H-pyrrole-2-carboxamide]",0.63,
> 25,> 25,33.4,33.8,54.5,3.14,2.06,15.1,,,"N#Cc1ccc(Cn2cccc2C(=O)Nc2nc([C@H]3CCCN3c3ccccc3)cs2)cc1 [Compound C50, (R)-1-(4-cyanobenzyl)-N-(4-(1-phenylpyrrolidin-2-yl)thiazol-2-yl)-1H-pyrrole-2-carboxamide]",0.66,
> 25,> 25,53.9,79.7,64.7,2.75,3.35,56.6,,,"O=C(Nc1nc([C@H]2CCCN2c2ccccc2)cs1)c1cccn1CC1CCCCC1 [Compound C39, (R)-1-(cyclohexylmethyl)-N-(4-(1-phenylpyrrolidin-2-yl)thiazol-2-yl)-1H-pyrrole-2-carboxamide]",1.2,
> 25,> 25,1.3,53.4,38.7,4.12,7.05,5.84,,,"C#CCCCn1cccc1C(=O)Nc1nc([C@H]2CCCN2c2ccccc2)cs1 [Compound C31, (R)-1-(pent-4-yn-1-yl)-N-(4-(1-phenylpyrrolidin-2-yl)thiazol-2-yl)-1H-pyrrole-2-carboxamide]",1.7,
> 25,> 25,7.34,26.7,8.68,8.24,> 25,1.33,,,"O=C(Nc1nc([C@H]2CCCN2c2ccccc2)cs1)c1ccc[nH]1 [Compound E58, (R)-N-(4-(1-phenylpyrrolidin-2-yl)thiazol-2-yl)-1H-pyrrole-2-carboxamide]",>3.0,
> 25,> 25,0.39,1.91,6.8,,,5.37,20.7,> 25,O=C(O)c1ccc(N2CCC[C@@H]2c2csc(NC(=O)c3cccn3Cc3ccncc3)n2)cc1 [Compound A13],,>1.2
> 25,0.519,0.23,0.71,19.8,,,0.8,0.00722,0.0171,"O=C(Nc1nc([C@H]2CCCN2c2ccc(-c3ncco3)cc2)cs1)c1cccn1Cc1ccncc1 [Compound A9, (R)-N-(4-(1-(4-(oxazol-2-yl)phenyl)pyrrolidin-2-yl)thiazol-2-yl)-1-(pyridin-4-ylmethyl)-1H-pyrrole-2-carboxamide]",,2.4
> 25,> 25,41.9,46.1,37.5,4.89,> 25,17,,,"O=C(Nc1nc([C@H]2CCCN2c2ccccc2)cs1)c1cccn1Cc1cnn[nH]1 [Compound C29, (R)-1-((1H-1,2,3-triazol-5-yl)methyl)-N-(4-(1-phenylpyrrolidin-2-yl)thiazol-2-yl)-1H-pyrrole-2-carboxamide]",>5.1,
> 25,> 25,5.63,39.8,37.6,5.21,5.62,9.91,,,"C#CCCCCn1cccc1C(=O)Nc1nc([C@H]2CCCN2c2ccccc2)cs1 [Compound C30, (R)-1-(hex-5-yn-1-yl)-N-(4-(1-phenylpyrrolidin-2-yl)thiazol-2-yl)-1H-pyrrole-2-carboxamide]",1.1,
> 25,23.9,3.74,3.25,4.86,0.671,2.63,1.26,,,"O=C(Nc1nc([C@H]2CCCN2c2ccccc2)cs1)c1cccn1CCCc1c[nH]nn1 [Compound C27, (R)-1-(3-(1H-1,2,3-triazol-5-yl)propyl)-N-(4-(1-phenylpyrrolidin-2-yl)thiazol-2-yl)-1H-pyrrole-2-carboxamide]",3.9,
